Test results from the NIST ThermoML archive (doi:10.1016/j.jct.2014.01.030).

Assay: xn = mol fraction of the nth substance listed
Conditions: 101 kPa, Liquid; for speed of sound: Sing-around technique in a fixed-path interferometer; for mass density: Vibrating tube method

CCn1cc[n+](C)c1.COS(=O)(=O)[O-] [1-ethyl-3-methylimidazolium methylsulfate] + CCCO
Conditions | mass density, 288.15 K [kg/m3] | mass density, 298.15 K [kg/m3] | mass density, 308.15 K [kg/m3] | speed of sound, 288.15 K [m/s] | speed of sound, 298.15 K [m/s] | speed of sound, 308.15 K [m/s]
x2 = 0 | 1287.57 | 1280.81 | 1273.97 | 1781 | 1756 | 1732
x2 = 0.055 | 1277.08 | 1270.16 | 1263.29 | 1765 | 1741 | 1717
x2 = 0.104 | 1266.71 | 1259.77 | 1252.89 | 1750 | 1725 | 1701
x2 = 0.21 | 1241.65 | 1234.68 | 1227.75 | 1712 | 1687 | 1662
x2 = 0.307 | 1215.18 | 1208.16 | 1201.19 | 1671 | 1645 | 1620
x2 = 0.414 | 1181.08 | 1174.01 | 1166.97 | 1617 | 1592 | 1567
x2 = 0.519 | 1141.11 | 1133.94 | 1126.8 | 1559 | 1533 | 1507
x2 = 0.62 | 1095.52 | 1088.26 | 1081.02 | 1498 | 1471 | 1445
x2 = 0.718 | 1042.21 | 1034.8 | 1027.38 | 1435 | 1407 | 1380
x2 = 0.81 | 981.73 | 974.16 | 966.57 | 1373 | 1344 | 1315
x2 = 0.907 | 903.61 | 895.88 | 888.1 | 1307 | 1276 | 1245
x2 = 0.954 | 858.4 | 850.58 | 842.66 | 1276 | 1243 | 1211

CCn1cc[n+](C)c1.COS(=O)(=O)[O-] [1-ethyl-3-methylimidazolium methylsulfate] + CCO
Conditions | mass density, 288.15 K [kg/m3] | mass density, 298.15 K [kg/m3] | mass density, 308.15 K [kg/m3] | speed of sound, 288.15 K [m/s] | speed of sound, 298.15 K [m/s] | speed of sound, 308.15 K [m/s]
x2 = 0 | 1287.57 | 1280.81 | 1273.97 | 1781 | 1756 | 1732
x2 = 0.05 | – | 1273.01 | 1266.14 | – | 1744 | 1720
x2 = 0.0501 | 1279.94 | – | – | 1769 | – | –
x2 = 0.1018 | 1271.31 | – | – | 1756 | – | –
x2 = 0.102 | – | 1264.42 | 1257.55 | – | 1731 | 1707
x2 = 0.197 | – | 1246.51 | 1239.58 | – | 1704 | 1679
x2 = 0.1972 | 1253.48 | – | – | 1728 | – | –
x2 = 0.3098 | 1228.51 | – | – | 1690 | – | –
x2 = 0.31 | – | 1221.47 | 1214.47 | – | 1665 | 1640
x2 = 0.391 | – | 1199.39 | 1192.33 | – | 1630 | 1605
x2 = 0.3913 | 1206.5 | – | – | 1656 | – | –
x2 = 0.503 | 1170.26 | 1163.02 | 1155.75 | 1600 | 1574 | 1549
x2 = 0.6129 | 1125.74 | – | – | 1532 | – | –
x2 = 0.613 | – | 1118.41 | 1111.08 | – | 1506 | 1480
x2 = 0.703 | – | 1071.36 | 1063.86 | – | 1440 | 1413
x2 = 0.7031 | 1078.87 | – | – | 1467 | – | –
x2 = 0.8087 | 1007.23 | – | – | 1376 | – | –
x2 = 0.809 | – | 999.5 | 991.73 | – | 1348 | 1321
x2 = 0.901 | – | 914.27 | 906.19 | – | 1256 | 1226
x2 = 0.9011 | 922.29 | – | – | 1286 | – | –
x2 = 0.948 | – | 859.57 | 851.28 | – | 1206 | 1175
x2 = 0.9482 | 867.78 | – | – | 1238 | – | –

CCn1cc[n+](C)c1.COS(=O)(=O)[O-] [1-ethyl-3-methylimidazolium methylsulfate] + CO
Conditions | mass density, 288.15 K [kg/m3] | mass density, 298.15 K [kg/m3] | mass density, 308.15 K [kg/m3] | speed of sound, 288.15 K [m/s] | speed of sound, 298.15 K [m/s] | speed of sound, 308.15 K [m/s]
x2 = 0 | 1287.57 | 1280.81 | 1273.97 | 1781 | 1756 | 1732
x2 = 0.0515 | 1282.18 | 1275.24 | 1268.37 | 1772 | 1748 | 1724
x2 = 0.1025 | 1276.36 | 1269.42 | 1262.52 | 1763 | 1739 | 1715
x2 = 0.1919 | 1265.13 | 1258.14 | 1251.2 | 1747 | 1722 | 1698
x2 = 0.3013 | 1247.5 | 1240.45 | 1233.43 | 1720 | 1695 | 1670
x2 = 0.4032 | 1227.98 | 1220.84 | 1213.74 | 1690 | 1665 | 1640
x2 = 0.5038 | 1203.27 | 1196.01 | 1188.8 | 1653 | 1628 | 1602
x2 = 0.604 | 1170.7 | 1163.31 | 1155.94 | 1605 | 1578 | 1553
x2 = 0.7023 | 1127.32 | 1119.71 | 1112.12 | 1541 | 1514 | 1487
x2 = 0.8003 | 1065.67 | 1057.76 | 1049.86 | 1452 | 1424 | 1397
x2 = 0.9049 | 962.26 | 953.82 | 945.37 | 1316 | 1286 | 1258
x2 = 0.9515 | 893.83 | 885.04 | 876.21 | 1237 | 1206 | 1176
